One block for each compound: values may come before it. The source made the active and inactive calls. No cut-off for these calls is given here.
Assays:
[1] = test system: 3T3-L1; test: Inhibition of lipid accumulation in mouse 3T3-L1 cells at 5 to 20 uM incubated for 6 days by Oil Red O staining based spectrometric assay; format: functional, cell-based; conditions: dose 5-20 µM, time 6.0 day
[2] = test system: Mus musculus; test: Anti-diabetic activity in high fat diet-fed C57BL/6J mouse model of obesity and diabetes assessed as improvement in blood lipid profile by measuring decrease in free cholesterol at 20 mg/kg, ip dosed daily for 2 weeks; format: functional, organism-based
[3] = test system: 3T3-L1; test: Inhibition of lipid accumulation in mouse 3T3-L1 cells at 1 to 20 uM incubated for 6 days by Oil Red O staining based spectrometric assay; format: functional, cell-based; conditions: dose 1-20 µM, time 6.0 day
[4] = test system: Mus musculus; test: Anti-diabetic activity in high fat diet-fed C57BL/6J mouse model of obesity and diabetes assessed as reduction in body weight at 20 mg/kg, ip dosed daily for 8 days; format: functional, organism-based; conditions: time 8.0 day
[5] = test system: Mus musculus; test: Effect on fecal energy content in high fat diet-fed C57BL/6J mouse model of obesity and diabetes at 20 mg/kg, ip dosed daily for 8 days; format: functional, organism-based; conditions: time 8.0 day
[6] = test system: 3T3-L1; test: Inhibition of lipid synthesis related gene expression in mouse 3T3-L1 cells assessed as reduction in MGAT1 expression at 20 uM incubated for 6 days by real-time PCR analysis; format: functional, cell-based; conditions: time 6.0 day
[7] = test system: Mus musculus; test: Anti-diabetic activity in high fat diet-fed C57BL/6J mouse model of obesity and diabetes assessed as reduction in blood glucose at 20 mg/kg, ip dosed daily for 2 weeks; format: functional, organism-based
[8] = test system: Mus musculus; test: Anti-diabetic activity in high fat diet-fed C57BL/6J mouse model of obesity and diabetes assessed as reduction in respiratory exchange ratio at 20 mg/kg, ip dosed daily for 2 weeks; format: functional, organism-based
[9] = test system: 3T3-L1; test: Inhibition of lipid synthesis related gene expression in mouse 3T3-L1 cells assessed as reduction in SREBPlc expression at 20 uM incubated for 6 days by real-time PCR analysis; format: functional, cell-based; conditions: time 6.0 day
[10] = test system: 3T3-L1; test: Effect on cytochrome B5 reductase 3 in mouse 3T3-L1 cells at 10 uM dosed during day 2 to 6 and followed by drug replacement every 48 hrs by LC-MS/MS analysis based proteomic analysis; format: functional; conditions: time 4.0 day
[11] = test system: 3T3-L1; test: Inhibition of lipid synthesis related gene expression in mouse 3T3-L1 cells assessed as reduction in DGAT2 expression at 20 uM incubated for 6 days by real-time PCR analysis; format: functional, cell-based; conditions: time 6.0 day
[12] = test system: Mus musculus; test: Anti-diabetic activity in high fat diet-fed C57BL/6J mouse model of obesity and diabetes assessed as reduction of white adipose tissue at 20 mg/kg, ip dosed daily for 2 weeks; format: functional, organism-based
[13] = test system: Mus musculus; test: Anti-diabetic activity in high fat diet-fed C57BL/6J mouse model of obesity and diabetes assessed as reduction of whole body fat mass at 20 mg/kg, ip dosed daily for 2 weeks; format: functional, organism-based
[14] = test system: 3T3-L1; test: Inhibition of CE accumulation in mouse 3T3-L1 cells; format: functional, cell-based
[15] = test system: Mus musculus; test: Anti-diabetic activity in high fat diet-fed C57BL/6J mouse model of obesity and diabetes assessed as reduction in serum leptin level at 20 mg/kg, ip dosed daily for 2 weeks; format: functional, organism-based
[16] = test system: 3T3-L1; test: Inhibition of lipid synthesis related gene expression in mouse 3T3-L1 cells assessed as reduction in PPARgamma expression at 20 uM incubated for 6 days by real-time PCR analysis; format: functional, cell-based; conditions: time 6.0 day
[17] = test system: 3T3-L1; test: Inhibition of LD accumulation mouse 3T3-L1 cells using deuterium labeled glucose-d7 by SRS microscopy; format: functional, cell-based
[18] = test system: Mus musculus; test: Anti-diabetic activity in high fat diet-fed C57BL/6J mouse model of obesity and diabetes assessed as reduction in insulin levels at 20 mg/kg, ip dosed daily for 2 weeks; format: functional, organism-based
[19] = test system: 3T3-L1; test: Inhibition of cholesterol uptake related gene expression in mouse 3T3-L1 cells assessed as reduction in CD36 expression at 20 uM incubated for 6 days by real-time PCR analysis; format: functional, cell-based; conditions: time 6.0 day
[20] = test system: Mus musculus; test: Anti-diabetic activity in high fat diet-fed C57BL/6J mouse model of obesity and diabetes assessed as reduction in energy expenditure at 20 mg/kg, ip dosed daily for 2 weeks; format: functional, organism-based
[21] = test system: Mus musculus; test: Anti-diabetic activity in high fat diet-fed C57BL/6J mouse model of obesity and diabetes assessed as reduction of white adipose tissue weight (epididymal adipose tissue ) at 20 mg/kg, ip dosed daily for 2 weeks; format: functional, organism-based
[22] = test system: 3T3-L1; test: Effect on superoxide dismutase 1 in mouse 3T3-L1 cells at 10 uM dosed during day 2 to 6 and followed by drug replacement every 48 hrs by LC-MS/MS analysis based proteomic analysis; format: functional; conditions: time 4.0 day
[23] = test system: Mus musculus; test: Anti-diabetic activity in high fat diet-fed C57BL/6J mouse model of obesity and diabetes assessed as reduction in food intake at 20 mg/kg, ip dosed daily for 8 days; format: functional, organism-based; conditions: time 8.0 day
[24] = Hepato-toxicity in high fat diet-fed C57BL/6J mouse model of obesity and diabetes assessed as effect on ALT activity at 20 mg/kg, ip dosed daily for 2 weeks; format: organism-based; conditions: in vivo, 336 h
[25] = test system: Mus musculus; test: Anti-diabetic activity in high fat diet-fed C57BL/6J mouse model of obesity and diabetes assessed as improvement in blood lipid profile by measuring decrease in TG level at 20 mg/kg, ip dosed daily for 2 weeks; format: functional, organism-based
[26] = test system: Mus musculus; test: Anti-diabetic activity in high fat diet-fed C57BL/6J mouse model of obesity and diabetes assessed as improvement in blood lipid profile by measuring decrease in CE level at 20 mg/kg, ip dosed daily for 2 weeks; format: functional, organism-based
[27] = test system: 3T3-L1; test: Suppression of cholesterol levels in mouse 3T3-L1 cells; format: functional, cell-based
[28] = test system: Mus musculus; test: Anti-diabetic activity in high fat diet-fed C57BL/6J mouse model of obesity and diabetes assessed as reduction in total body weight gain at 20 mg/kg, ip dosed daily for 2 weeks; format: functional; parameters: scale not given: the % may be the effect or the level left
[29] = test system: Mus musculus; test: Anti-diabetic activity in high fat diet-fed C57BL/6J mouse model of obesity and diabetes assessed as reduction of white adipose tissue weight (retroperitoneal adipose tissue ) at 20 mg/kg, ip dosed daily for 2 weeks; format: functional, organism-based
[30] = test system: 3T3-L1; test: Inhibition of lipid synthesis related gene expression in mouse 3T3-L1 cells assessed as reduction in FAS expression at 20 uM incubated for 6 days by real-time PCR analysis; format: functional, cell-based; conditions: time 6.0 day
[31] = test system: 3T3-L1; test: Inhibition of lipid synthesis related gene expression in mouse 3T3-L1 cells assessed as reduction in SCD1 expression at 20 uM incubated for 6 days by real-time PCR analysis; format: functional, cell-based; conditions: time 6.0 day
[32] = test system: Mus musculus; test: Anti-diabetic activity in high fat diet-fed C57BL/6J mouse model of obesity and diabetes assessed as reduction in food intake at 20 mg/kg, ip dosed daily for 2 weeks; format: functional; parameters: scale not given: the % may be the effect or the level left
[33] = test system: 3T3-L1; test: Inhibition of lipid accumulation in mouse 3T3-L1 cells at 10 to 20 uM incubated for 6 days by CARS microscopy; format: functional, cell-based; conditions: dose 10-20 µM, time 6.0 day
[34] = target: T1, Sterol O-acyltransferase 1 (Mus musculus) (UniProt Q61263); test: Inhibition of ACAT in mouse 3T3-L1 cells assessed as reduction in accumulation of fluorescence-labeled CE by 25-NBD cholesterol based assay; format: cell-based
T1 sequence (whole entry): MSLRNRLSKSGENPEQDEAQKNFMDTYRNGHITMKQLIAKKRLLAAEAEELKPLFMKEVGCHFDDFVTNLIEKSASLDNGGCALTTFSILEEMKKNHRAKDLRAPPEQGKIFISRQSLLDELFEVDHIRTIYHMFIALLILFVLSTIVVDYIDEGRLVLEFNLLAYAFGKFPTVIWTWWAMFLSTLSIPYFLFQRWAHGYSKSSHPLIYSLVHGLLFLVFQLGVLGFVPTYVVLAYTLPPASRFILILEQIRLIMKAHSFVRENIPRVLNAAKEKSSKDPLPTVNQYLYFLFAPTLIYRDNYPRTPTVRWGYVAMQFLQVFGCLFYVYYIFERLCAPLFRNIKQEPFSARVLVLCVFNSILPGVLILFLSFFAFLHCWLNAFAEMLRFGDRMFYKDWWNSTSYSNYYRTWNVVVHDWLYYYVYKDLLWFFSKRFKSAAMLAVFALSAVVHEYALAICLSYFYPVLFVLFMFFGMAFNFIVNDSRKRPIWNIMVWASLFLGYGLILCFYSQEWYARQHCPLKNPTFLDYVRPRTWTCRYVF

[35] = test system: 3T3-L1; test: Inhibition of lipid accumulation in mouse 3T3-L1 cells at 1 to 20 uM incubated for 6 days by Oil Red O staining based spectrometric assay relative to control; format: functional; conditions: dose 1-20 µM, time 6 day
[36] = test system: 3T3-L1; test: Increase in 125 kDa inactive precursor form of SREBPl protein in mouse 3T3-L1 cells at 20 uM incubated for 6 days by Western blot analysis; format: functional, cell-based; conditions: time 6.0 day
[37] = test system: Mus musculus; test: Anti-diabetic activity in high fat diet-fed C57BL/6J mouse model of obesity and diabetes assessed as improvement in glucose tolerance at 20 mg/kg, ip dosed daily for 2 weeks; format: functional, organism-based
[38] = test system: Mus musculus; test: Anti-diabetic activity in high fat diet-fed C57BL/6J mouse model of obesity and diabetes assessed as improvement in HOMA-IR levels at 20 mg/kg, ip dosed daily for 2 weeks; format: functional, organism-based
[39] = test system: 3T3-L1; test: Inhibition of cholesterol uptake related gene expression in mouse 3T3-L1 cells assessed as reduction in SR-B1 expression at 20 uM incubated for 6 days by real-time PCR analysis; format: functional, cell-based; conditions: time 6.0 day

SMILES: CCCCCCCCCCC(C)(C)C(=O)Nc1c(OC)cc(OC)cc1OC
inhibition [1]: Active

inhibition [34]: Active
SMILES: CC(C)c1cc(C(C)C)c(CC(=O)NS(=O)(=O)Oc2c(C(C)C)cccc2C(C)C)c(C(C)C)c1 [AVASIMIBE]
Activity [2]: Active
inhibition [3]: Dose-dependent effect
Activity [4]: Active
Activity [5]: inactive
inhibition [6]: Active
Activity [7]: Active
Activity [8]: Active
inhibition [9]: Active
Activity [10]: inactive
inhibition [11]: Active
Activity [12]: Active
Activity [13]: Active
inhibition [14]: Active
Activity [15]: Active
inhibition [16]: Active
inhibition [17]: Active
Activity [18]: Active
inhibition [19]: Active
Activity [20]: Active
Activity [21]: Active
Activity [22]: inactive
Activity [23]: Active
Activity [24]: Non-Toxic
Activity [25]: Active
Activity [26]: Active
inhibition [27]: Active
Activity [28]: 25%
Activity [29]: Active
inhibition [30]: Active
inhibition [31]: Active
Activity [32]: 50%
inhibition [33]: Active
inhibition (INH) [35]: <=60%
Activity [36]: Active
Activity [37]: Active
Activity [38]: Active
inhibition [39]: Active

Reference: ChEMBL document CHEMBL4742397, “Compositions and methods for regulating body weight and metabolic syndromes” (2018)
